The procedure of series [1]: SINGLE DOSE OCULAR PHARMACOKINETIC STUDY OF CLX-162 FORMULATION IN MALE NEW ZEALAND WHITE RABBITS: The purpose of this study was to determine the ocular pharmacokinetics of CLX-162, Brimonidine R-(+)-lipoate when administered to male New Zealand white rabbits by topical ocular route.
Aqueous humor samples were collected at pre-determined time points (0.25, 0.5, 1, 2, 4, 8 and 12 h from both eyes) and stored at −70° C. until analysis. Brimonidine was quantified in aqueous humor samples of New Zealand White rabbits, using a specific sensitive LC-MS/MS fit for purpose analytical method.
Brimonidine Pharmacokinetic parameters in aqueous humor of New Zealand white rabbits: […]

In series [2] the test system is P. acnes, Staphylococcus aureus (S. aureus), and Staphylococcus epidermidis (S. epidermidis). The settings on record: twofold serial dilutions 0.24 to 500 μg ml-1, 72, 24, 48 hours for P. acnes, OD600. From the text: (§1) ANTI-MICROBIAL PROPERTIES OF CLX-SYN-G162B-C02 AND BRIMONIDINE MALEATE: To compare dose-response effects of CLX-SYN-G162B-C02 [brimonidine eicosapentaenoate salt], compound of present invention and brimonidine maleate [referred as brimonidine], comparative example on the growth of bacteria that are present in the skin flora, P. acnes, Staphylococcus aureus (S. aureus), and Staphylococcus epidermidis (S. epidermidis) were co-cultured with either agent at various concentrations for 72, 24, and 48 hours, respectively.
(§2) Bacterial growth was evaluated by measuring absorbance at 600 nm. The length of cultivation period was determined based on the growth speed of the bacteria. Both, CLX-SYN-G162B-C02 and brimonidine were tested at concentrations of twofold serial dilutions from 0.24 to 500 μg ml-1.

Series [3] relates to P. acnes. The settings on record: 72 hours co-culture; compared with S. aureus and S. epidermidis.
Excerpt: as §1, §2

[4] abbreviates: brimonidine in aqueous humor, 50 μL topical ocular, each eye, New Zealand white rabbits.

Data on 3 compounds can be found in patent US20210188817A1, “OPHTHALMIC COMPOSITIONS AND METHODS FOR THE TREATMENT OF EYE DISORDERS AND SKIN DISEASES” (Cellix Bio Private Limited, priority 2018, published 2021).

The term Cmax denotes the highest concentration seen after dosing. A word on the Tmax: it is the time at which the peak concentration occurs. As to `Brc1c(NC2=NCCN2)ccc2nccnc12.O=C(O)CCCC[C@@H]1CCSS1` [CLX-162, Brimonidine R-(+)-lipoate], the AUC profile entry in series [1] (aqueous humor, ocular administration, comparator not stated) was “better AUC profile”. In series [1] (setting [4]), the AUCinf worked out at 1953 ng·h/mL, the AUClast amounted to 1875 ng·h/mL, the Cmax was 1073 ng/mL and the MRTlast stood at 75.6 min. In series [1] (setting [4]), the T1/2 amounted to 49.2 min and the time of peak concentration (Tmax) is 30 min. In addition, the “Time to maximal aqueous humor concentration” value in series [1] (topical ocular) was at most 0.5 h. Moreover, the “Brimonidine levels detectable in the aqueous humor, time post dose” value in series [1] (topical ocular, sampling 0.25-12 h) is “up to 4 h”.

For “Brimonidine Eicosapentaenoate [CLX-SYN-G162B-C02]”, in series [2], the “minimal inhibitory concentration (MIC)” value is “had shown to prevent bacterial growth”. Besides, the “half maximal effective concentration on P. acnes growth” value in series [3] was “lowest among the bacteria tested”.

“brimonidine maleate [reference compound]”: in series [2], the “minimal inhibitory concentration (MIC)” value was “no MIC”.
